Columns and labels:
[1] = molecular target: T1, human TRPV1 receptor (hTRPV1) (Homo sapiens (Human), UniProt Q8NER1); assay: Capsaicin activation assay (FLIPR intracellular Ca2+); type: cell-based; conditions: inhibition of capsaicin-induced intracellular Ca2+ increase; compounds added 3 minutes prior to capsaicin; read-out: hTRPV1 cap. IC50
Experimental: Dulbecco's modified Eagle medium (D-MEM) (with 4.5 mg/mL glucose) and fetal bovine serum were obtained from Hyclone Laboratories, Inc. (Logan, Utah). Dulbecco's phosphate-buffered saline (D-PBS) (with 1 mg/mL glucose and 3.6 mg/l Na pyruvate, without phenol red), L-glutamine, hygromycin B, and Lipofectamine® were obtained from Life Technologies (Grand Island, N.Y.). G418 sulfate was obtained from Calbiochem-Novabiochem Corp. (San Diego, Calif.). Capsaicin (8-methyl-N-vanillyl-6-nonenamide) was obtained from Sigma-Aldrich, Co. (St. Louis, Mo.). Fluo-4 AM (N-[4-[6-[(acetyloxy)methoxy]-2,7-difluoro-3-oxo-3H-xanthen-9-yl]-2-[2-[2-[bis[2-[(acetyloxy)methoxy]-2-oxyethyl]amino]-5-methylphenoxy]ethoxy]phenyl]-N-[2-[(acetyloxy)methoxy]-2-oxyethyl]-glycine, (acetyloxy)methyl ester) was purchased from Molecular Probes (Eugene, Oreg.).
(§1) The cDNAs for the human TRPV1 receptor (hTRPV1) were isolated by reverse transcriptase-polymerase chain reaction (RT-PCR) from human small intestine poly A+ RNA supplied by Clontech (Palo Alto, Calif.) using primers designed surrounding the initiation and termination codons identical to the published sequences (Hayes et al. Pain 2000, 88, 205-215). The resulting cDNA PCR products were subcloned into pCIneo mammalian expression vector (Promega) and fully sequenced using fluorescent dye-terminator reagents (Prism, Perkin-Elmer Applied Biosystems Division) and a Perkin-Elmer Applied Biosystems Model 373 DNA sequencer or Model 310 genetic analyzer. Expression plasmids encoding the hTRPV1 cDNA were transfected individually into 1321N1 human astrocytoma cells using Lipofectamine®. Forty-eight hours after transfection, the neomycin-resistant cells were selected with growth medium containing 800 μg/mL Geneticin (Gibco BRL). Surviving individual colonies were isolated and screened for TRPV1 receptor activity. Cells expressing recombinant homomeric TRPV1 receptors were maintained at 37° C. in D-MEM containing 4 mM L-glutamine, 300 μg/mL G418 (Cal-biochem) and 10% fetal bovine serum under a humidified 5% CO2 atmosphere.
The functional activity of compounds at the TRPV1 receptor was determined by measurement of intracellular Ca^2+ levels ([Ca^2]i) using the Fluorescence Imaging Plate Reader (FLIPR)^TETRA®. All compounds were tested over a 12-point one-third-log concentration range. Compound stocks, 10 mM, were prepared in DMSO, and diluted serially across a 384-well plate using a Bravo BenchCel workstation (Agilent Technologies, Santa Clara, Calif.). A stock concentration of capsaicin (10 mM) was made in DMSO, and diluted in D-PBS to a final concentration of 200 nM (4×). On the day prior to the experiment, recombinant HEK293 cells that stably express either human or rat TRPV1 (hTRPV1-3) were removed from tissue culture flasks and plated in growth medium into black-walled clear-bottom 384-well Biocoat™ poly-D-lysine assay plates (BD Biosciences, Bedford, Mass.) using a Multidrop® dispenser (ThermoScientific, Waltham, Mass.). On the day of the experiment, growth medium was removed, and the no-wash FLIPR® Calcium-4 dye (λEX=470-495 nm, λEM=515-575 nm; Molecular Devices, Sunnyvale, Calif.) was added to each well using the Multidrop® dispenser. Cells were incubated for 90-120 minutes in the dark at room temperature. Test compounds were added to the cells 3 minutes prior to the addition of 200 nM capsaicin (4×), and the final assay volume was 80 μL. Fluorescence readings were made at 1 to 5 second intervals over the course of the experimental run. The peak increase in relative fluorescence units (minus baseline) was calculated, and expressed as a percentage of the 50 nM capsaicin (control) response. Curve-fits of the data were solved using a four-parameter logistic Hill equation in GraphPad Prism® (GraphPad Software, Inc., San Diego, Calif.), and IC50 values (concentration of the test compounds that inhibits 50% of the intracellular Ca^2+ concentration increase induced by capasin) were calculated.

[2] = molecular target: T1, human TRPV1 receptor (hTRPV1); assay: Acid activation assay (pH 5.0, FLIPR intracellular Ca2+); type: cell-based; conditions: 37.5 μM compound, percentage of the maximal pH 5.0-induced response remaining; for remaining activity at 37.5 µM: read-out: hTRPV1 H+ (max % remain)
Experimental: Dulbecco's modified Eagle's medium (DMEM) with 4.5 mg/mL D-glucose, fetal bovine serum, L-glutamine, and 2-morpholinoethanesulfonic acid (MES) were purchased from Sigma-Aldrich Co. (St. Louis, Mo.). Dulbecco's phosphate-buffered saline (DPBS) with Ca^2+, Mg^2+, and 1 mg/mL D-glucose (pH 7.4), Geneticin®, 0.25% trypsin-1 mM EDTA, and penicillin-streptomycin were purchased from Invitrogen Corp. (Carlsbad, Calif.). The FLIPR® Calcium 4 assay kit was purchased from Molecular Devices (Sunnyvale, Calif.).
as §1, with “DMEM” for “D-MEM”
The functional activity of compounds at the TRPV1 receptor was determined by measurement of intracellular Ca^2+ levels ([Ca^2+]i) using the Fluorescence Imaging Plate Reader (FLIPR)^TETRA®. All compounds were tested over a 12-point one-half-log concentration range. Compound stocks, 10 mM, were prepared in DMSO, and diluted serially across a 384-well plate using a Bravo BenchCel workstation (Agilent Technologies, Santa Clara, Calif.).
On the day of the experiment growth medium was removed, and the no-wash FLIPR®Calcium-4 dye (λEX=470-495 nm, λEM=515-575 nm) was added to each well using the Multidrop® dispenser. Cells were incubated for 90-120 minutes in the dark at 25° C. Test compounds were dissolved in DMSO, and plates were prepared using an Agilent Bravo workstation (Agilent Technologies Inc., Santa Clara, Calif.). Compounds were added to the cells 3 minutes prior to the addition of a pH 5.0 solution. Reagents were delivered at a rate of 40 μL/sec, and the final assay volume was 80 μL. Acidic pH solutions were prepared by titration of DPBS/MES with 1 N HCl. The intensity of the fluorescence was captured and digitally transferred to an interfaced PC.

rats = assay: Rat tail immersion assay (noxious thermosensation, 55° C. water bath); type: in vivo; conditions: rat, morphine 6 mg/kg i.p. in saline, relative to vehicle
Experimental: Compounds were tested for their effects on noxious thermosensation using the tail immersion assay. Testing was performed one hour following oral administration of 100 μmol/kg of the compound in 10% ethanol/20% Tween-80/70% PEG-400 (2 mL/kg). Mophine (6 mg/kg) was administered interperitoneally (i.p.) using saline (2 mL/kg) as the vehicle. For testing, a circulating water bath was heated to 55° C. Thirty to sixty minutes post dosing, the rats were handled for a few seconds to calm them down and then cupped with their back against the testers hand at a slight angle with head facing away from tester. With rat in one hand and a 0.01 second stopwatch in the other hand, the tail was quickly immersed 6-8 cm in water bath or to a distance leaving 2-3 cm of tail out of water. The timer was started simultaneously. When the rat flinched or attempted withdrawal, timer was immediately stopped and the rat's tail was quickly removed from water bath. This response latency (in seconds) was recorded. Process was repeated 3 times with 3-4 minutes between readings for a final average.
For a given example, a percent increase in the average response latency (in seconds) for tail withdrawal relative to a vehicle control was determined % increase=[(tc−tv)/tv]×100%
tc=response time (in seconds) with oral dosing of compounds
tv=response time (in seconds) with oral dosing of vehicle
The % increases in tail withdrawal latency relative to vehicle control are divided into the following categories: […]

T1 sequence (Q8NER1 whole entry): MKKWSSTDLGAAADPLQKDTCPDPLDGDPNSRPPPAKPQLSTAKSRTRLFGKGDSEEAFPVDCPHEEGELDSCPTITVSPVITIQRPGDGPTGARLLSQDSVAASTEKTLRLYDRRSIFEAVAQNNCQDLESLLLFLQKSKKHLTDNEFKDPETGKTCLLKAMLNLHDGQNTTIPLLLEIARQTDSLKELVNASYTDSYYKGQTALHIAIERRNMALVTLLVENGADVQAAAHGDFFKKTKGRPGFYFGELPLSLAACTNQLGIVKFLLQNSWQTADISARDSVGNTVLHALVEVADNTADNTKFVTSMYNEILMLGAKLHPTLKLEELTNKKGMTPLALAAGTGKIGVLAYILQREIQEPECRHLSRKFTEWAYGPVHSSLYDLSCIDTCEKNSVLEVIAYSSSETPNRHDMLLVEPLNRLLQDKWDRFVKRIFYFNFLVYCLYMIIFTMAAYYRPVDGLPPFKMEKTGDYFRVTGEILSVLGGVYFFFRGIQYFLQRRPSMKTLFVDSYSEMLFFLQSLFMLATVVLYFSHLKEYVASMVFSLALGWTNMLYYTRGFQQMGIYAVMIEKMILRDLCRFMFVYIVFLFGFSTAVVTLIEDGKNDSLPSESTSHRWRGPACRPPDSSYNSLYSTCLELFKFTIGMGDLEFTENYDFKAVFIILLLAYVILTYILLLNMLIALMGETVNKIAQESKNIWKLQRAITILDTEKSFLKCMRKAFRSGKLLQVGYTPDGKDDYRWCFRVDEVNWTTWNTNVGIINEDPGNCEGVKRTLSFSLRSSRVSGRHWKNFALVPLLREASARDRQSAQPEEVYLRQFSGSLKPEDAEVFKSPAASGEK

| SMILES | IC50 [1] [nM] | hTRPV1 H+ (max % remain) [2] [%] | remaining activity at 37.5 µM [2] [%] | % Increase in Tail Withdrawal Latency (rats) |
| --- | --- | --- | --- | --- |
| CC1(C)C[C@H](NC(=O)NCc2ccc(NS(C)(=O)=O)c(F)c2)c2cc(F)ccc2O1 [Example 34, N-{2-fluoro-4-[({[(45)-6-fluoro-2,2-dimethyl-3,4-dihydro-2H-chromen-4-yl]carbamoyl}amino)methyl]phenyl}methanesulfonamide] | 28700 | 86 |  |  |
| C[C@@]1(C(F)(F)F)C[C@@H](NC(=O)NCc2ccc(NS(C)(=O)=O)c(F)c2)c2ccccc2O1 [Example 35, N-{2-fluoro-4-[({[(2S,4R)-2-methyl-2-(trifluoromethyl)-3,4-dihydro-2H-chromen-4-yl]carbamoyl}amino)methyl]phenyl}methanesulfonamide] | 2440 |  | 25 |  |
| C[C@]1(C(F)(F)F)C[C@@H](NC(=O)NCc2ccc(NS(C)(=O)=O)c(F)c2)c2ccccc2O1 [Example 36, N-{2-fluoro-4-[({[(2R,4R)-2-methyl-2-(trifluoromethyl)-3,4-dihydro-2H-chromen-4-yl]carbamoyl}amino)methyl]phenyl}methanesulfonamide] | 587 |  | 58 |  |
| C[C@@]1(CF)C[C@@H](NC(=O)NCc2ccc(NS(C)(=O)=O)c(F)c2)c2ccc(C(F)(F)F)cc2O1 [Example 37, N-{2-fluoro-4-[({[(2S,4R)-2-(fluoromethyl)-2-methyl-7-(trifluoromethyl)-3,4-dihydro-2H-chromen-4-yl]carbamoyl}amino)methyl]phenyl}methanesulfonamide] | 256 |  | 64 |  |
| C[C@]1(CF)C[C@@H](NC(=O)NCc2ccc(NS(C)(=O)=O)c(F)c2)c2ccc(C(F)(F)F)cc2O1 [Example 38, N-{2-fluoro-4-[({[(2R,4R)-2-(fluoromethyl)-2-methyl-7-(trifluoromethyl)-3,4-dihydro-2H-chromen-4-yl]carbamoyl}amino)methyl]phenyl}methanesulfonamide] | 345 |  | 63 |  |
| C[C@@]1(CF)C[C@@H](NC(=O)NCc2ccc(NS(C)(=O)=O)c(F)c2)c2ccc(Cl)cc2O1 [Example 39, N-{4-[({[(2S,4R)-7-chloro-2-(fluoromethyl)-2-methyl-3,4-dihydro-2H-chromen-4-yl]carbamoyl}amino)methyl]-2-fluorophenyl}methanesulfonamide] | 615 |  | 41 |  |
| C[C@@]1(C(F)F)C[C@@H](NC(=O)NCc2ccc(NS(C)(=O)=O)c(F)c2)c2ccccc2O1 [Example 40, N-{4-[({[(2S,4R)-2-(difluoromethyl)-2-methyl-3,4-dihydro-2H-chromen-4-yl]carbamoyl}amino)methyl]-2-fluorophenyl}methanesulfonamide] | 10100 |  | 64 |  |
| C[C@]1(C(F)F)C[C@@H](NC(=O)NCc2ccc(NS(C)(=O)=O)c(F)c2)c2ccccc2O1 [Example 41, N-{4-[({[(2R,4R)-2-(difluoromethyl)-2-methyl-3,4-dihydro-2H-chromen-4-yl]carbamoyl}amino)methyl]-2-fluorophenyl}methanesulfonamide] | 5280 |  | 71 |  |
| CC1(C)C[C@@H](NC(=O)NCc2ccc(NS(C)(=O)=O)c(F)c2)c2ccc(C(F)(F)F)nc2O1 [Example 42, N-{4-[({[(4R)-2,2-dimethyl-7-(trifluoromethyl)-3,4-dihydro-2H-pyrano[2,3-b]pyridin-4-yl]carbamoyl}amino)methyl]-2-fluorophenyl}methanesulfonamide] | 32800 |  | 82 |  |
| CS(=O)(=O)Nc1ccc(CNC(=O)N[C@@H]2CC(CF)(CF)Oc3cc(F)ccc32)cc1F [Example 43, N-{2-fluoro-4-[({[(4R)-7-fluoro-2,2-bis(fluoromethyl)-3,4-dihydro-2H-chromen-4-yl]carbamoyl}amino)methyl]phenyl}methanesulfonamide] | 6410 |  | 43 |  |
| CS(=O)(=O)Nc1ccc(CNC(=O)NC2CC3(CCCC3)Oc3ccccc32)cc1F (centres unmarked) [Example 44, N-(4-{[(3,4-dihydrospiro[chromene-2,1′-cyclopentan]-4-ylcarbamoyl)amino]methyl}-2-fluorophenyl)methanesulfonamide] | 1280 |  | 42 |  |
| CN1CC[C@]23c4c5ccc(O)c4O[C@H]2[C@@H](O)C=C[C@H]3[C@H]1C5 [Morphine] |  |  |  | +++ (greater than or equal to 25% increase) |

From patent publication US8796328B2, “TRPV1 antagonists” (AbbVie Inc., priority 2012, dated 2014)
